Measured values taken from patent US20070128217A1 (priority 2003, published 2007).

Experiments:
[1] = test system: antibodies in sera from SARS patients (sera 1a, 1b, 2, 6, 37, 62, London, SARS-yellow, SARS-green); type: binding, human; parameters: Binding of serum 6 to linear peptides of protein X1 of SARS-CoV Urbani / Binding of serum 37 to linear peptides of protein X1 of SARS-CoV Urbani / Binding of serum 6 to looped/cyclic peptide (PEPSCAN-ELISA) / Binding of serum 37 to looped/cyclic peptide (PEPSCAN-ELISA) / Binding of serum 37 to looped/cyclic peptides of protein X1 of SARS-CoV Urbani / Binding of serum 6 to linear peptides of protein X2 / Binding of serum 37 to linear peptides of protein X2 / Binding of serum 37 to looped/cyclic peptides of protein X2 of SARS-CoV Urbani / Binding of serum 6 to linear peptides of protein M of SARS-CoV Urbani / Binding of serum 37 to linear peptides of protein M of SARS-CoV Urbani / Binding of serum 6 to looped/cyclic peptides of protein M of SARS-CoV Urbani / Binding of serum 37 to looped/cyclic peptides of protein M of SARS-CoV Urbani / Binding of serum 6 to linear peptides of protein X3 of SARS-CoV Urbani / Binding of serum 37 to linear peptides of protein X3 of SARS-CoV Urbani / Binding of serum 37 to looped/cyclic peptides of protein X3 of SARS-CoV Urbani / Binding of serum 6 to linear peptides of protein X4 of SARS-CoV Urbani / Binding of serum 37 to linear peptides of protein X4 of SARS-CoV Urbani / Binding of serum 37 to looped/cyclic peptides of protein X4 of SARS-CoV Urbani / Binding of serum 6 to linear peptides of protein X5 of SARS-CoV Urbani / Binding of serum 37 to linear peptides of protein X5 of SARS-CoV Urbani / Binding of serum 37 to looped/cyclic peptides of protein X5 of SARS-CoV Urbani / Binding of serum 6 to linear peptides of protein N of SARS-CoV Urbani / Binding of serum 37 to linear peptides of protein N of SARS-CoV Urbani / Binding of serum 6 to linear peptide (PEPSCAN-ELISA) / Binding of serum 1a to looped/cyclic peptides of protein N of SARS-CoV Urbani / Binding of serum 1b to looped/cyclic peptides of protein N of SARS-CoV Urbani / Binding of serum 2 to looped/cyclic peptides of protein N of SARS-CoV Urbani / Binding of serum 6 to looped/cyclic peptides of protein N of SARS-CoV Urbani / Binding of serum 37 to looped/cyclic peptides of protein N of SARS-CoV Urbani / Binding of serum 62 to looped/cyclic peptides of protein N of SARS-CoV Urbani / Binding of serum London to looped/cyclic peptides of protein N of SARS-CoV Urbani / Binding of serum SARS-green to looped/cyclic peptides of protein N of SARS-CoV Urbani: unit not given here
[2] = test system: control sera (pooled serum of ten healthy LUMC hospital workers; commercial negative donor pooled serum from the Dutch bloodbank); type: binding, human; parameters: Binding of Control serum LUMC to linear peptides / Binding of Control serum Blood-bank to linear peptides / Binding of Control serum LUMC to looped peptides / Binding of Control Serum Blood-Bank to Looped peptides / Binding of Control serum LUMC to linear peptides of the protein M of SARS-CoV Urbani / Binding of Control serum Blood-bank to linear peptides of the protein M of SARS-CoV Urbani / Binding of Control serum LUMC to looped peptides of the protein M of SARS-CoV Urbani / Binding of Control Serum Blood-Bank to Looped peptides of the protein M of SARS-CoV Urbani: unit not given here
[3] = test system: rabbit serum obtained by immunizing a rabbit with the SARS-CoV strain Frankfurt 1; type: binding; parameters: Binding of a rabbit serum to linear peptides / Binding of a rabbit serum to looped peptides / Rabbit serum linear peptides / Rabbit serum looped peptides / Binding of a rabbit serum to linear peptides of protein N of SARS-CoV Urbani (Rabbit serum linear peptides) / Binding of a rabbit serum to looped/cyclic peptides of protein N of SARS-CoV Urbani (Rabbit serum looped peptides): unit not given here

FLAWIMLLQFAYSNR was tested, and the “Binding of serum 1a to linear peptides of protein M of SARS-CoV Urbani” value [1] was 0.7, the “Binding of serum 1a to looped/cyclic peptides of protein M of SARS-CoV Urbani” value [1] was 0.8 and the “Binding of serum 1b to linear peptides of protein M of SARS-CoV Urbani” value [1] was 0.6. For the same sequence, the “Binding of serum 1b to looped/cyclic peptides of protein M of SARS-CoV Urbani” value [1] was 0.8, the “Binding of serum 2 to linear peptides of protein M of SARS-CoV Urbani” value [1] was 0.5 and the “Binding of serum 2 to looped/cyclic peptides of protein M of SARS-CoV Urbani” value [1] was 0.6. The “Binding of serum 6 to linear peptides of protein M of SARS-CoV Urbani” value [1] was 0.4, the “Binding of serum 6 to looped/cyclic peptides of protein M of SARS-CoV Urbani” value [1] was 0.9 and the “Binding of serum 37 to linear peptides of protein M of SARS-CoV Urbani” value [1] was 0.4. For the same sequence, the “Binding of serum 37 to looped/cyclic peptides of protein M of SARS-CoV Urbani” value [1] was 0.7, the “Binding of serum 62 to linear peptides of protein M of SARS-CoV Urbani” value [1] was 0.4 and the “Binding of serum 62 to looped/cyclic peptides of protein M of SARS-CoV Urbani” value [1] was 0.6. The “Binding of serum London to linear peptides of protein M of SARS-CoV Urbani” value [1] was 0.4, the “Binding of serum London to looped/cyclic peptides of protein M of SARS-CoV Urbani” value [1] was 0.7 and the “Binding of serum SARS-green to linear peptides of protein M of SARS-CoV Urbani” value [1] was 0.5. For the same sequence, the “Binding of serum SARS-green to looped/cyclic peptides of protein M of SARS-CoV Urbani” value [1] was 0.5, the “Binding of serum SARS-yellow to linear peptides of protein M of SARS-CoV Urbani” value [1] was 0.2 and the “Binding of serum SARS-yellow to looped/cyclic peptides of protein M of SARS-CoV Urbani” value [1] was 0.7. For the same sequence, the “Binding of Control Serum Blood-Bank to Looped peptides of the protein M of SARS-CoV Urbani” value [2] was 0.8, the “Binding of Control serum Blood-bank to linear peptides of the protein M of SARS-CoV Urbani” value [2] was 0.5 and the “Binding of Control serum LUMC to linear peptides of the protein M of SARS-CoV Urbani” value [2] was 0.5. The “Binding of Control serum LUMC to looped peptides of the protein M of SARS-CoV Urbani” value [2] was 0.7, the “Rabbit serum linear peptides” value [3] was 0.3 and the “Rabbit serum looped peptides” value [3] was 0.5.
FLFLAWIMLLQFAYS was tested, and the “Binding of serum 1a to linear peptides of protein M of SARS-CoV Urbani” value [1] was 0.7, the “Binding of serum 1a to looped/cyclic peptides of protein M of SARS-CoV Urbani” value [1] was 0.8 and the “Binding of serum 1b to linear peptides of protein M of SARS-CoV Urbani” value [1] was 0.6. For the same sequence, the “Binding of serum 1b to looped/cyclic peptides of protein M of SARS-CoV Urbani” value [1] was 0.7, the “Binding of serum 2 to linear peptides of protein M of SARS-CoV Urbani” value [1] was 0.4 and the “Binding of serum 2 to looped/cyclic peptides of protein M of SARS-CoV Urbani” value [1] was 0.6. The “Binding of serum 6 to linear peptides of protein M of SARS-CoV Urbani” value [1] was 0.4, the “Binding of serum 6 to looped/cyclic peptides of protein M of SARS-CoV Urbani” value [1] was 0.9 and the “Binding of serum 37 to linear peptides of protein M of SARS-CoV Urbani” value [1] was 0.4. The “Binding of serum 37 to looped/cyclic peptides of protein M of SARS-CoV Urbani” value [1] was 0.7, the “Binding of serum 62 to linear peptides of protein M of SARS-CoV Urbani” value [1] was 0.4 and the “Binding of serum 62 to looped/cyclic peptides of protein M of SARS-CoV Urbani” value [1] was 0.8. For the same sequence, the “Binding of serum London to linear peptides of protein M of SARS-CoV Urbani” value [1] was 0.3, the “Binding of serum London to looped/cyclic peptides of protein M of SARS-CoV Urbani” value [1] was 0.3 and the “Binding of serum SARS-green to linear peptides of protein M of SARS-CoV Urbani” value [1] was 0.4. The “Binding of serum SARS-green to looped/cyclic peptides of protein M of SARS-CoV Urbani” value [1] was 0.3, the “Binding of serum SARS-yellow to linear peptides of protein M of SARS-CoV Urbani” value [1] was 0.2 and the “Binding of serum SARS-yellow to looped/cyclic peptides of protein M of SARS-CoV Urbani” value [1] was 0.4. For the same sequence, the “Binding of Control Serum Blood-Bank to Looped peptides of the protein M of SARS-CoV Urbani” value [2] was 0.8, the “Binding of Control serum Blood-bank to linear peptides of the protein M of SARS-CoV Urbani” value [2] was 0.5 and the “Binding of Control serum LUMC to linear peptides of the protein M of SARS-CoV Urbani” value [2] was 0.5. For the same sequence, the “Binding of Control serum LUMC to looped peptides of the protein M of SARS-CoV Urbani” value [2] was 0.7, the “Rabbit serum linear peptides” value [3] was 0.2 and the “Rabbit serum looped peptides” value [3] was 0.3.
